{"source": "patent EP4759315A1", "about": "“DRUG PREPARED FROM ORGANIC GERMANIUM COMPOUND AND GLUCOSAMINE COMPOUND, AND USE THEREOF” (Eion International Ltd., priority 2023, dated 2025)", "origin": "cited, not measured here", "key": {"[1]": {"conditions": "in vivo"}}, "data": [{"smiles": "O=C(O)C[CH2][Ge](=[O])[O][Ge](=[O])[CH2]CC(=O)O", "note": "[Ge-132, bis(carboxyethyl)germanium sesquioxide]", "values": [{"measurement": "pH of the solution", "setting": "at the concentration of 1.28 g/100 ml in water", "value": "3.06-3.12"}, {"measurement": "solubility in water", "setting": "water", "value": 1.28, "unit": "g/100 ml"}, {"measurement": "No-Observable-Adverse-Effect Level (NOAEL)", "setting": "[1]", "value": 2000, "unit": "mg/kg body weight/day"}]}]}
